Reference: the NIST ThermoML archive (doi:10.1021/je200721d)

Assay: xn = mol fraction of the nth substance listed
Conditions: Liquid, Vibrating tube method

CCCCCCCCCC [decane] + CCCCCC
Conditions	mass density [kg/m3]
362.91 K, 7000 kPa, x2 = 0.0456	681.43
362.91 K, 8000 kPa, x2 = 0.0456	682.51
362.91 K, 9000 kPa, x2 = 0.0456	683.59
362.91 K, 10000 kPa, x2 = 0.0456	684.65
362.91 K, 11000 kPa, x2 = 0.0456	685.7
362.91 K, 12000 kPa, x2 = 0.0456	686.71
362.91 K, 13000 kPa, x2 = 0.0456	687.73
362.91 K, 14000 kPa, x2 = 0.0456	688.73
362.91 K, 15000 kPa, x2 = 0.0456	689.71
362.91 K, 16000 kPa, x2 = 0.0456	690.69
362.91 K, 17000 kPa, x2 = 0.0456	691.65
362.91 K, 18000 kPa, x2 = 0.0456	692.61
362.91 K, 19000 kPa, x2 = 0.0456	693.55
362.91 K, 20000 kPa, x2 = 0.0456	694.48
362.91 K, 21000 kPa, x2 = 0.0456	695.43
362.91 K, 22000 kPa, x2 = 0.0456	696.32
362.91 K, 23000 kPa, x2 = 0.0456	697.22
362.91 K, 24000 kPa, x2 = 0.0456	698.09
362.91 K, 25000 kPa, x2 = 0.0456	698.96
362.93 K, 1000 kPa, x2 = 0.7524	623.36
362.93 K, 2000 kPa, x2 = 0.7524	624.97
362.93 K, 3000 kPa, x2 = 0.7524	626.55
362.93 K, 4000 kPa, x2 = 0.7524	628.12
362.93 K, 5000 kPa, x2 = 0.7524	629.63
362.93 K, 6000 kPa, x2 = 0.7524	631.14
362.93 K, 7000 kPa, x2 = 0.7524	632.58
362.93 K, 8000 kPa, x2 = 0.7524	634.03
362.93 K, 9000 kPa, x2 = 0.7524	635.42
362.93 K, 10000 kPa, x2 = 0.7524	636.78
362.93 K, 11000 kPa, x2 = 0.7524	638.11
362.93 K, 12000 kPa, x2 = 0.7524	639.39
362.93 K, 13000 kPa, x2 = 0.7524	640.69
362.93 K, 14000 kPa, x2 = 0.7524	641.96
362.93 K, 15000 kPa, x2 = 0.7524	643.24
362.93 K, 16000 kPa, x2 = 0.7524	644.37
362.93 K, 17000 kPa, x2 = 0.7524	645.56
362.93 K, 18000 kPa, x2 = 0.7524	646.73
362.93 K, 19000 kPa, x2 = 0.7524	647.87
362.93 K, 20000 kPa, x2 = 0.7524	649
362.93 K, 21000 kPa, x2 = 0.7524	650.11
362.93 K, 22000 kPa, x2 = 0.7524	651.2
362.93 K, 23000 kPa, x2 = 0.7524	652.27
362.93 K, 24000 kPa, x2 = 0.7524	653.3
362.93 K, 25000 kPa, x2 = 0.7524	654.33
362.94 K, 1000 kPa, x2 = 0.4968	646.01
362.94 K, 2000 kPa, x2 = 0.4968	647.42
362.94 K, 3000 kPa, x2 = 0.4968	648.86
362.94 K, 4000 kPa, x2 = 0.4968	650.21
362.94 K, 5000 kPa, x2 = 0.4968	651.6
362.94 K, 6000 kPa, x2 = 0.4968	652.91
362.94 K, 7000 kPa, x2 = 0.4968	654.2
362.94 K, 8000 kPa, x2 = 0.4968	655.48
362.94 K, 9000 kPa, x2 = 0.4968	656.71
362.94 K, 10000 kPa, x2 = 0.4968	657.94
362.94 K, 11000 kPa, x2 = 0.4968	659.13
362.94 K, 12000 kPa, x2 = 0.4968	660.32
362.94 K, 13000 kPa, x2 = 0.4968	661.45
362.94 K, 14000 kPa, x2 = 0.4968	662.6
362.94 K, 15000 kPa, x2 = 0.4968	663.75
362.94 K, 16000 kPa, x2 = 0.4968	664.81
362.94 K, 17000 kPa, x2 = 0.4968	665.88
362.94 K, 18000 kPa, x2 = 0.4968	666.95
362.94 K, 19000 kPa, x2 = 0.4968	667.98
362.94 K, 20000 kPa, x2 = 0.4968	669.01
362.94 K, 21000 kPa, x2 = 0.4968	670.03
362.94 K, 22000 kPa, x2 = 0.4968	671.04
362.94 K, 23000 kPa, x2 = 0.4968	672.03
362.94 K, 24000 kPa, x2 = 0.4968	673
362.94 K, 25000 kPa, x2 = 0.4968	673.96
362.95 K, 1000 kPa, x2 = 0.2185	664.98
362.95 K, 2000 kPa, x2 = 0.2185	666.23
362.95 K, 3000 kPa, x2 = 0.2185	667.46
362.95 K, 4000 kPa, x2 = 0.2185	668.71
362.95 K, 5000 kPa, x2 = 0.2185	669.93
362.95 K, 6000 kPa, x2 = 0.2185	671.12
362.95 K, 7000 kPa, x2 = 0.2185	672.27
362.95 K, 8000 kPa, x2 = 0.2185	673.43
362.95 K, 9000 kPa, x2 = 0.2185	674.54
362.95 K, 10000 kPa, x2 = 0.2185	675.66
362.95 K, 11000 kPa, x2 = 0.2185	676.75
362.95 K, 12000 kPa, x2 = 0.2185	677.81
362.95 K, 13000 kPa, x2 = 0.2185	678.85
362.95 K, 14000 kPa, x2 = 0.2185	679.9
362.95 K, 15000 kPa, x2 = 0.2185	680.96
362.95 K, 16000 kPa, x2 = 0.2185	681.94
362.95 K, 17000 kPa, x2 = 0.2185	682.95
362.95 K, 18000 kPa, x2 = 0.2185	683.9
362.95 K, 19000 kPa, x2 = 0.2185	684.89
362.95 K, 20000 kPa, x2 = 0.2185	685.85
362.95 K, 21000 kPa, x2 = 0.2185	686.79
362.95 K, 22000 kPa, x2 = 0.2185	687.72
362.95 K, 23000 kPa, x2 = 0.2185	688.63
362.95 K, 24000 kPa, x2 = 0.2185	689.54
362.95 K, 25000 kPa, x2 = 0.2185	690.43
